# Measured values as given in patent publication US6689773B2, “Uracil substituted phenyl sulfamoyl carboxamides” (BASF Aktiengesellschaft, priority 2000, dated 2004).
# Key:
# [1] = test system: XANST, Cocklebur, Xanthium strumariam; assay: Postemergence herbicidal evaluation (Example 147); type: in vivo; conditions: rating scale 0-9, two to three weeks after treatment
# Method in brief: (§1)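 About two-week-old seedlings were sprayed postemergence at roughly 0.016–0.032 kg/ha in 80/20 acetone/water with 1.0% methylated seed oil. After two to three weeks in the greenhouse, injury was rated visually on a 0–9 scale against controls, and repeat tests were averaged.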
# [2] = test system: ZEAMX, Field corn, Zea mays L.; assay: Postemergence herbicidal evaluation (Example 147); type: in vivo; conditions: rating scale 0-9, two to three weeks after treatment
# Method in brief: as §1
# [3] = test system: AMBEL, Ragweed, Common, Ambrosia artemiisifolia, L.; assay: Postemergence herbicidal evaluation (Example 147); type: in vivo; conditions: rating scale 0-9, two to three weeks after treatment
# Method in brief: as §1
# [4] = test system: IPOHE, Morningglory, Ivyleaf, Ipomoea hederacea, (L)Jacq.; assay: Postemergence herbicidal evaluation (Example 147); type: in vivo; conditions: rating scale 0-9, two to three weeks after treatment
# Method in brief: as §1
# [5] = test system: DIGSA, Crabgrass, (Hairy) L, Digitaria sanguinalis, (L)Scop; assay: Postemergence herbicidal evaluation (Example 147); type: in vivo; conditions: rating scale 0-9, two to three weeks after treatment
# Method in brief: as §1
# [6] = test system: ABUTH, Velvetleaf, Abutilon theophrasti, Medic.; assay: Postemergence herbicidal evaluation (Example 147); type: in vivo; conditions: rating scale 0-9, two to three weeks after treatment
# Method in brief: as §1
# [7] = test system: ECHCG, Barnyardgrass, Echinochloa crusgalli, (L.)Beau; assay: Postemergence herbicidal evaluation (Example 147); type: in vivo; conditions: rating scale 0-9, two to three weeks after treatment
# Method in brief: as §1
# [8] = test system: GLXMA, Soybean, Glycine max, (L.) Merr.; assay: Postemergence herbicidal evaluation (Example 147); type: in vivo; conditions: rating scale 0-9, two to three weeks after treatment
# Method in brief: as §1
# [9] = test system: TRZAW, Winter wheat, Tritium Aestivum, L. (Winter); assay: Postemergence herbicidal evaluation (Example 147); type: in vivo; conditions: rating scale 0-9, two to three weeks after treatment
# Method in brief: as §1
# [10] = test system: ALOMY, Blackgrass, Alopecurus myosuroides; assay: Postemergence herbicidal evaluation (Example 147); type: in vivo; conditions: rating scale 0-9, two to three weeks after treatment
# Method in brief: as §1
# [11] = test system: SETVI, Green foxtail, Setaria viridis, (L.)Beau; assay: Postemergence herbicidal evaluation (Example 147); type: in vivo; conditions: rating scale 0-9, two to three weeks after treatment
# Method in brief: as §1
# [12] = test system: CHEAL, Lambsquarters, Chenopodium album, L. Common; assay: Postemergence herbicidal evaluation (Example 147); type: in vivo; conditions: rating scale 0-9, two to three weeks after treatment
# Method in brief: as §1
# [13] = test system: XANST, Cocklebur, Xanthium strumariam; assay: Preemergence herbicidal evaluation (Example 148); type: in vivo; conditions: rating scale 0-9, two to four weeks after treatment
# Method in brief: (§2)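 Seeds mixed with potting soil and planted in cups, then sprayed preemergence with aqueous acetone solution of test compound at about 0.125 to 0.250 kg per hectare. Kept under greenhouse conditions; visual rating versus untreated control 2–4 weeks after treatment, scoring stand, vigor, malformation, size and chlorosis. Repeat tests averaged.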
# [14] = test system: ZEAMX, Field corn, Zea mays L.; assay: Preemergence herbicidal evaluation (Example 148); type: in vivo; conditions: rating scale 0-9, two to four weeks after treatment
# Method in brief: as §2
# [15] = test system: AMBEL, Ragweed, Common, Ambrosia artemiisifolia, L.; assay: Preemergence herbicidal evaluation (Example 148); type: in vivo; conditions: rating scale 0-9, two to four weeks after treatment
# Method in brief: as §2
# [16] = test system: IPOHE, Morningglory, Ivyleaf, Ipomoea hederacea, (L)Jacq.; assay: Preemergence herbicidal evaluation (Example 148); type: in vivo; conditions: rating scale 0-9, two to four weeks after treatment
# Method in brief: as §2
# [17] = test system: DIGSA, Crabgrass, (Hairy) L, Digitaria sanguinalis, (L)Scop; assay: Preemergence herbicidal evaluation (Example 148); type: in vivo; conditions: rating scale 0-9, two to four weeks after treatment
# Method in brief: as §2
# [18] = test system: ABUTH, Velvetleaf, Abutilon theophrasti, Medic.; assay: Preemergence herbicidal evaluation (Example 148); type: in vivo; conditions: rating scale 0-9, two to four weeks after treatment
# Method in brief: as §2
# [19] = test system: ECHCG, Barnyardgrass, Echinochloa crusgalli, (L.)Beau; assay: Preemergence herbicidal evaluation (Example 148); type: in vivo; conditions: rating scale 0-9, two to four weeks after treatment
# Method in brief: as §2
# [20] = test system: GLXMA, Soybean, Glycine max, (L.) Merr.; assay: Preemergence herbicidal evaluation (Example 148); type: in vivo; conditions: rating scale 0-9, two to four weeks after treatment
# Method in brief: as §2
# [21] = test system: TRZAW, Winter wheat, Tritium Aestivum, L. (Winter); assay: Preemergence herbicidal evaluation (Example 148); type: in vivo; conditions: rating scale 0-9, two to four weeks after treatment
# Method in brief: as §2
# [22] = test system: ALOMY, Blackgrass, Alopecurus myosuroides; assay: Preemergence herbicidal evaluation (Example 148); type: in vivo; conditions: rating scale 0-9, two to four weeks after treatment
# Method in brief: as §2
# [23] = test system: SETVI, Green foxtail, Setaria viridis, (L.)Beau; assay: Preemergence herbicidal evaluation (Example 148); type: in vivo; conditions: rating scale 0-9, two to four weeks after treatment
# Method in brief: as §2
# [24] = test system: CHEAL, Lambsquarters, Chenopodium album, L. Common; assay: Preemergence herbicidal evaluation (Example 148); type: in vivo; conditions: rating scale 0-9, two to four weeks after treatment
# Method in brief: as §2
# [25] = test system: potato plants; assay: Field trials of preharvest desiccant activity (Example 151); type: in vivo, Potatoes; conditions: EC formulation 120 grams a.i./liter applied to foliage a few weeks before harvest
# Experimental: Field evaluations of preharvest desiccant activity were performed at several different locations using compound Ia.86. In each experiment treatments was replicated three times in a randomized complete block experimental design. Potatoes were grown using good agronomic practices of each area. Treatments were applied a few weeks before planned potato harvest. The test compound was formulated as an emulsifiable concentrate (EC) formulation with 120 grams a.i./liter. The formulation was diluted with water, spray adjuvants were added, and the treatment solution was applied to the foliage of potatoes in from 187 to 600 l/ha of total spray volume. Unless indicated otherwise, the treatments also contained […] of methylated seed oil adjuvant (Hasten or SUN-IT II. In the case of split applications, the second application was made about 1 week after the initial application. At various intervals after treatment, desiccation of stems and leaves was evaluated separately, on a visual % desiccation scale. In each test the test compound was compared to appropriate commercial standards at the normal rate for each standard for the area.
# [26] = test system: Polygonum persicaria (POLPE), redshank; ladysthumb; assay: Greenhouse post-emergence herbicidal action (Example 149); type: in vivo; conditions: 15.6 or 7.8 g/ha of a.i.
# Experimental: (§3) The culture containers used were plastic flowerpots containing loamy sand with approximately 3.0% of humus as substrate. The seeds of the test plants were sown separately for each species.
# (§4) For the post-emergence treatment, the test plants were grown to a plant height of from 3 to 15 cm, depending on the plant habit, and only then treated with the active ingredients which had been suspended or emulsified in water. To this end, the test plants were either sown directly and grown in the same containers, or they were first grown separately as seedlings and transplanted into the test containers a few days prior to treatment. The rate of application for the post-emergence treatment was 15.6 or 7.8 g/ha active ingredient.
# (§5) Depending on the species, the plants were kept at from 10-25° C. and 20-35° C., respectively. The test period extended over 2 to 4 weeks. During this time, the plants were tended, and their response to the individual treatments was evaluated.
# (§6) Evaluation was carried out using a scale of from 0 to 100. 100 means no emergence of the plants, or complete destruction of at least the aerial parts, and 0 means no damage or normal course of growth.
# (§7) The plants used in the greenhouse experiments belonged to the following species: […]
# [27] = test system: Pharbitis purpurea (PHBPU), common or tall morningglory; assay: as above; type: in vivo; conditions: 15.6 or 7.8 g/ha of a.i.
# Experimental: as §3, §4, §5, §6, §7
# [28] = test system: Amaranthus retroflexus (AMARE), Redroot pigweed; assay: as above; type: in vivo; conditions: 15.6 or 7.8 g/ha of a.i.
# Experimental: as §3, §4, §5, §6, §7
compound,measurement,setting,value
CN(CCC#N)S(=O)(=O)NC(=O)c1cc(-n2c(=O)cc(C(F)(F)F)n(C)c2=O)c(F)cc1Cl [Example 84],Postemergence herbicidal rating XANST,[1]; rate 0.016 kg/ha,9.0
same,Postemergence herbicidal rating XANST,[1]; rate 0.032 kg/ha,9.0
same,Postemergence herbicidal rating ZEAMX,[2]; rate 0.016 kg/ha,7.0
same,Postemergence herbicidal rating ZEAMX,[2]; rate 0.032 kg/ha,8.0
same,Postemergence herbicidal rating AMBEL,[3]; rate 0.016 kg/ha,8.0
same,Postemergence herbicidal rating AMBEL,[3]; rate 0.032 kg/ha,9.0
same,Postemergence herbicidal rating IPOHE,[4]; rate 0.016 kg/ha,9.0
same,Postemergence herbicidal rating IPOHE,[4]; rate 0.032 kg/ha,9.0
same,Postemergence herbicidal rating DIGSA,[5]; rate 0.016 kg/ha,5.0
same,Postemergence herbicidal rating DIGSA,[5]; rate 0.032 kg/ha,6.0
same,Postemergence herbicidal rating ABUTH,[6]; rate 0.016 kg/ha,9.0
same,Postemergence herbicidal rating ABUTH,[6]; rate 0.032 kg/ha,9.0
same,Postemergence herbicidal rating ECHCG,[7]; rate 0.016 kg/ha,8.0
same,Postemergence herbicidal rating ECHCG,[7]; rate 0.032 kg/ha,9.0
same,Postemergence herbicidal rating GLXMA,[8]; rate 0.016 kg/ha,7.0
same,Postemergence herbicidal rating GLXMA,[8]; rate 0.032 kg/ha,8.5
same,Postemergence herbicidal rating TRZAW,[9]; rate 0.016 kg/ha,5.0
same,Postemergence herbicidal rating TRZAW,[9]; rate 0.032 kg/ha,5.5
same,Postemergence herbicidal rating ALMOY,[10]; rate 0.016 kg/ha,1.0
same,Postemergence herbicidal rating ALMOY,[10]; rate 0.032 kg/ha,2.0
same,Postemergence herbicidal rating SETVI,[11]; rate 0.016 kg/ha,7.0
same,Postemergence herbicidal rating SETVI,[11]; rate 0.032 kg/ha,8.0
same,Postemergence herbicidal rating CHEAL,[12]; rate 0.016 kg/ha,7.0
same,Postemergence herbicidal rating CHEAL,[12]; rate 0.032 kg/ha,9.0
same,Preemergence herbicidal rating XANST,[13]; rate 0.125 kg/ha,9.0
same,Preemergence herbicidal rating XANST,[13]; rate 0.25 kg/ha,9.0
same,Preemergence herbicidal rating ZEAMX,[14]; rate 0.125 kg/ha,0.0
same,Preemergence herbicidal rating ZEAMX,[14]; rate 0.25 kg/ha,1.0
same,Preemergence herbicidal rating AMBEL,[15]; rate 0.125 kg/ha,9.0
same,Preemergence herbicidal rating AMBEL,[15]; rate 0.25 kg/ha,9.0
same,Preemergence herbicidal rating IPOHE,[16]; rate 0.125 kg/ha,9.0
same,Preemergence herbicidal rating IPOHE,[16]; rate 0.25 kg/ha,9.0
same,Preemergence herbicidal rating DIGSA,[17]; rate 0.125 kg/ha,7.0
same,Preemergence herbicidal rating DIGSA,[17]; rate 0.25 kg/ha,8.0
same,Preemergence herbicidal rating ABUTH,[18]; rate 0.125 kg/ha,9.0
same,Preemergence herbicidal rating ABUTH,[18]; rate 0.25 kg/ha,9.0
same,Preemergence herbicidal rating ECHCG,[19]; rate 0.125 kg/ha,5.0
same,Preemergence herbicidal rating ECHCG,[19]; rate 0.25 kg/ha,6.0
same,Preemergence herbicidal rating GLXMA,[20]; rate 0.125 kg/ha,2.0
same,Preemergence herbicidal rating GLXMA,[20]; rate 0.25 kg/ha,7.0
same,Preemergence herbicidal rating TRZAW,[21]; rate 0.125 kg/ha,0.0
same,Preemergence herbicidal rating TRZAW,[21]; rate 0.25 kg/ha,2.0
same,Preemergence herbicidal rating ALMOY,[22]; rate 0.125 kg/ha,0.0
same,Preemergence herbicidal rating ALMOY,[22]; rate 0.25 kg/ha,1.0
same,Preemergence herbicidal rating SETVI,[23]; rate 0.125 kg/ha,7.0
same,Preemergence herbicidal rating SETVI,[23]; rate 0.25 kg/ha,7.0
same,Preemergence herbicidal rating CHEAL,[24]; rate 0.125 kg/ha,9.0
same,Preemergence herbicidal rating CHEAL,[24]; rate 0.25 kg/ha,9.0
CC(C)N(C)S(=O)(=O)NC(=O)c1cc(-n2c(=O)cc(C(F)(F)F)n(C)c2=O)c(F)cc1Cl [Ia.86],desiccation of the leaves and stems of potato plants,[25],very effective
"CC(C)N(C)S(=O)(=O)NC(=O)c1cc(-n2c(=O)n(C)c(=S)n(C)c2=O)c(F)cc1Cl [Ij.86, N′-[2-Chloro-5-(3,5-dimethyl-2,6-dioxo-4-thioxo-1,3,5-triazinan-1-yl)-4-fluorobenzoyl]-N-isopropyl-N-methylsulfamide]",herbicidal action,[26],very good herbicial action
same,herbicidal action,[27],very good herbicial action
same,herbicidal action,[28],very good herbicial action
